# Data taken from US10561638B2, “Methods for treating dependence” (Biotie Therapies, Inc., priority 2007, dated 2020).
# Legend:
# SHRs = details: rat, in vivo
# normotensive Wistar rats = assay: 7 day radio-telemetry study in normotensive Wistar rats
# Experimental: Male Crl:COBS(WI)BR rats of 15 weeks old were used.
# Both nepicastat and hydralazine were prepared in water with traces of Tween 80. All doses were given orally to the rat in 10 ml/kg and were expressed as free base equivalents.
# All values were expressed as means±SEM. Statistical significance was defined as a p level of less than 0.05.
# Body weights were recorded daily.
# [1] = system: plasma noradrenaline, dopamine and epinephrine; assay: Plasma catecholamines in beagle dogs, 2 mg/kg b.i.d. for 15 days; format: in vivo
# Experimental: Male beagle dogs were randomized to be orally dosed with either empty capsules (control) or nepicastat (2 mg·kg^−1, po, b.i.d.) for 15 days. Daily venous blood samples were drawn, six hours after the first dose, for measurement of plasma concentrations of dopamine and noradrenaline. The samples were collected in tubes containing heparin and glutathione, centrifuged at −4° C. and the separated plasma was stored at −70° C. until analysis. […] When compared to the control group, nepicastat (2 mg·kg^−1, b.i.d, po) produced significant decreases in plasma concentrations of noradrenaline and increases in plasma concentrations of dopamine and dopamine/noradrenaline ratio.
# The chronic effects of nepicastat (14.5 day treatment) on the plasma DA/NE ratio were investigated in normal dogs. Animals were randomized to receive, orally, either placebo (empty capsule) or nepicastat (2 mg/kg, b.i.d) for 14.5 days. Daily blood samples were drawn, 6 h after the first dose, for the measurement of plasma concentrations of DA and NE. The samples were collected in tubes containing heparin and glutathione, centrifuged at −4° C. and stored at −70° C. until analysis.
# Male Beagle dogs (Marshall farms, North Rose, N.Y.) weighing between 9-16 kg were used in the study. The animals were allowed water ad libitum and given food once daily at ˜10.00 AM. Animals were randomly assigned to one of the following treatment groups (n=8/group): placebo (empty capsule), or nepicastat at 2 mg/kg b.i.d (4 mg/kg/day). Each animal received 2 doses daily, morning and afternoon (8-10 hours apart). Daily blood samples (10 ml) were drawn 6 h after the AM dose for measurement of plasma levels of nepicastat and catecholamines. The blood was collected in tubes containing heparin and glutathione and centrifuged at −4° C. within 1 h of collection. The plasma was separated and divided into two samples, one for the measurement of plasma catecholamines and the other for analysis of nepicastat.
# Plasma norepinephrine (NE), dopamine (DA) and epinephrine (EPI) were analyzed by HPLC using electrochemical detection. Plasma concentration of nepicastat was determined by HPLC using electrochemical detection.
# The BQL (below quantitation limit) in the DA concentration of dog 1 at day 10 was set to 0; 1n (0) was set to missing. The analysis was performed using a mixed model (using PROC MIXED) with the day and treatment categorical variables being fixed and the dog within treatment being a random factor. For the fixed effects, the interaction between the day and the treatment was included, since the difference between the drug and placebo groups varies from day to day. Contrasts were calculated using the CONTRAST statement, which correctly takes into account the error terms for each particular contrast. In particular, the contrasts comparing the treatment group to the […] uses the dog mean square for its error term, while the comparisons used to establish steady state are all within dog comparisons, and require the error mean square.
# The time period of steady state was calculated using the Helmert transformation (cf. SAS PROC GLM manual). These transformations compare each treatment mean with the average of the treatment means of the time points following. The steady state period is defined to start at the first time point following the maximum time at which the Helmert contrast is statistically significant. However, since this method can fail to detect a smoothly changing process, as appears might be the case here, the slope of the analyte concentration during the steady state period also was calculated. The slope during the steady state period was calculated for each dog individually, yielding one slope per animal. Univariate statistics on the slopes were then calculated, with Normal theory confidence intervals built on the mean slope, and the hypothesis of slope equaling zero was tested, and its Normal theory p-value was calculated. […]
# [2] = system: mesenteric artery catecholamines and sympathetically-evoked responses; assay: Anesthetized beagle dogs, 30 mg/kg intraduodenally; format: in vivo
# [3] = system: norepinephrine and dopamine levels; assay: Cortex and mesenteric artery catecholamines in SHRs after 7 and 25 days; format: in vivo, spontaneous hypertensive rats
# Experimental: Nepicastat at 1 and 10 mg/kg was prepared in terms of the free base. The weighings were dissolved in vehicle (dH2O) to yield oral doses that could be administered in a volume of 10.0 ml/kg.
# Male spontaneous hypertensive rats (SHRs), 16-17 weeks old at the onset of the study, were used. Animals were allowed food and water ad libitum. Animals were randomly assigned to one of the following treatment groups: oral administration of nepicastat at 10 mg/kg, 1 mg/kg, or a vehicle group of deionized water at 10 ml/kg. Rats were dosed orally once a day for 7 or 25 days with vehicle, 1 mg/kg or 10 mg/kg nepicastat (n=8) except for day 25, where n=9. On day 7, four hours after compound administration, animals were anesthetized with halothane, decapitated and the cortex and mesenteric artery were harvested, weighed, and analyzed from 24 rats (n=8/treatment group). The remaining […] continued receiving oral administration with one of the three treatments for the following 18 days. At 4 hours after the last treatment the mesenteric artery and cortex from this group were harvested, weighed, and analyzed for catecholamine levels.
# Statistically, the three treatments were compared at each time period (7 or 25 days) using a non-parametric one-way analysis of variance (ANOVA). Pairwise comparisons of each treatment with control were performed using Fisher's LSD strategy on the means, adjusted for differences in sample size, to control the experiment-wise error rate. Each variable was analyzed separately. For FIGS. 6-11, *, p<0.05 and **, P<0.01.
# [4] = target: all other receptors examined; assay: Radioligand filtration binding (Example 19)
# Experimental: (§1) The affinity of nepicastat was determined in the bindings assays outlined using standard radioligand filtration binding methods were used. Competition binding data were analyzed by iterative curve fitting to a four parameter logistic equation. Hill coefficients and IC50 were obtained directly. pKi (−log of Ki) of competing ligands were calculated from IC50 values using the Cheng-Prusoff equation.
# alpha1 receptors = assay: Radioligand filtration binding (Example 19)
# Experimental: as §1
# [5] = cerebral cortex, 7 days, 10 mg/kg
# [6] = mesenteric artery, 7 and 25 days, 10 mg/kg
structure (smiles),measurement,setting,value
"Cl.NCc1c[nH]c(=S)n1[C@H]1CCc2c(F)cc(F)cc2C1 [nepicastat, (S)-5-Aminomethyl-1-(5,7-difluoro-1,2,3,4-tetrahydronaphth-2-yl)-2,3-dihydro-2-thioxo-1H-imidazole hydrochloride]",motor activity (MA),SHRs,unaffected
same,peak decrease in blood pressure,"normotensive Wistar rats; 30 mg/kg/d, day 2",−10 mmHg
same,peak antihypertensive response on day 1,"normotensive Wistar rats; 100 mg/kg, 22 hr after dosing",−11 mmHg
same,day of peak decrease in plasma EPI,[1],8 days
same,day of peak decrease in plasma NE,[1],6 days
same,day of peak increase in plasma DA,[1],7 days
same,day of peak increase in plasma DA/NE ratio,[1],6 days
same,days of dosing until decrease in plasma noradrenaline attained significance,[1],4 days
same,decrease in plasma EPI vs placebo,[1],1.91 fold
same,decrease in plasma NE vs placebo,[1],2.1 fold
same,increase in plasma DA vs placebo,[1],7.5 fold
same,increase in plasma DA/NE ratio vs placebo,[1],13.6 fold
same,time of peak effect on plasma DA/NE ratio,[1],6 to 7 days
same,time to steady-state of effect on plasma DA,[1],~8 days post-dose
same,time to steady-state of effect on plasma EPI,[1],~6 days post-dose
same,time to steady-state of effect on plasma NE,[1],approximately 4 days post-dose
same,responses to renal nerve stimulation and carotid artery occlusion,"[2]; 30 mg/kg intraduodenally, up to 5 hours",did not significantly inhibit
same,mesenteric artery catecholamines,[2]; 5 hours after 30 mg/kg intraduodenally,significant decrease in norepinephrine levels and an increase in the dopamine/norepinephrine ratio
same,norepinephrine levels and dopamine/norepinephrine ratio vs vehicle,"[3]; cerebral cortex, 7 days, 1 mg/kg",no significant (p>0.05) differences
same,dopamine/norepinephrine ratio vs vehicle,[3]; [5],significantly (p<0.05) higher
same,norepinephrine levels vs vehicle,[3]; [5],significantly (p<0.1) lower
same,dopamine levels vs vehicle,"[3]; cerebral cortex, 7 days, 1 or 10 mg/kg",no significant (p>0.05) differences
same,dopamine levels vs vehicle,"[3]; cortex, 25 days, 1 mg/kg",significantly (p<0.05) higher
same,dopamine/norepinephrine ratio vs vehicle,"[3]; cortex, 25 days, 1 mg/kg",significantly (p<0.01) greater
same,dopamine/norepinephrine ratio vs vehicle,"[3]; cortex, 25 days, 10 mg/kg",significantly greater (p<0.05)
same,norepinephrine levels vs control,"[3]; cortex, 25 days, either dose",not significantly (p.>0.05) different
same,all parameters vs control,"[3]; mesenteric artery, 1 mg/kg",None of the parameters measured were significantly (p<0.05) different
same,dopamine levels and dopamine/norepinephrine ratios vs vehicle,[3]; [6],significantly higher dopamine levels and dopamine/norepinephrine ratios
same,norepinephrine levels vs vehicle,[3]; [6],no differences in norepinephrine levels
same,pKi,[4],< 6.2
same,pKi,alpha1 receptors,6.9-6.7
